Results reported in article PMC4282894, “Effect of Bile Salt Hydrolase Inhibitors on a Bile Salt Hydrolase from Lactobacillus acidophilus” (Pathogens, 2014).
Where a name gives a salt, the structure may show the parent alone.

Target: T1, L. acidophilus BSH (rBSH; LaciP) (Lactobacillus acidophilus, UniProt A5HKP3)
T1 construct: full-length BSH (316 aa), C-terminal His tag, pET-21b(+), E. coli BL21(DE3), Ni-NTA; about 32 kDa on SDS-PAGE
Experiment: two-step ninhydrin BSH assay (glycine release from glycocholic acid)
Type: biochemical
From the text: two-step ninhydrin BSH assay (glycine release from glycocholic acid) on L. acidophilus BSH (rBSH; LaciP)

T1 sequence (A5HKP3 whole entry): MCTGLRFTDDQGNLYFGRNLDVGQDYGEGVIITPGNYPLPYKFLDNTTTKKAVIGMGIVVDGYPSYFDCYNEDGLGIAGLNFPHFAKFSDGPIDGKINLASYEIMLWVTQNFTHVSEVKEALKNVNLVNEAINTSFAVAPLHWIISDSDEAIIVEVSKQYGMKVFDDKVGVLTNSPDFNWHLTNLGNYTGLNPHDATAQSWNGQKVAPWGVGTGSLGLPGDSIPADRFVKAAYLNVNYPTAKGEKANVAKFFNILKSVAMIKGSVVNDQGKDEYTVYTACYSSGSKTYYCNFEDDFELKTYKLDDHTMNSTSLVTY

O=C(/C=C/c1ccc(O)c(O)c1)OCCc1ccccc1 [Caffeic Acid Phenethyl Ester]
inhibition at 2500 µM: 71.8%

CN(C)[C@@H]1C(O)=C(C(N)=O)C(=O)[C@@]2(O)C(O)=C3C(=O)c4c(O)ccc(Cl)c4[C@@H](O)[C@H]3C[C@@H]12 [Demeclocycline Hydrochloride]
inhibition at 2500 µM: 99.6%

C[C@H]1c2cccc(O)c2C(O)=C2C(=O)[C@]3(O)C(O)=C(C(N)=O)C(=O)[C@@H](N(C)C)[C@@H]3[C@@H](O)[C@@H]21 [Doxycycline Hydrochloride]
inhibition at 2500 µM: 98.3%

O=C(O[C@@H]1Cc2c(O)cc(O)cc2O[C@@H]1c1ccc(O)c(O)c1)c1cc(O)c(O)c(O)c1 [Epicatechin monogallate]
inhibition at 2500 µM: 52.8%

O=c1c(O)c(-c2ccc(O)c(O)c2)oc2c(O)c(O)cc(O)c12 [Gossypetin]
inhibition at 2500 µM: 96.1%

CCC[C@@H]1C[C@@H](C(=O)N[C@@H]([C@H]2O[C@H](SC)[C@H](O)[C@@H](O)[C@H]2O)[C@@H](C)O)N(C)C1 [Lincomycin]
inhibition at 2500 µM: 26.8%

CC1=CC(=O)c2ccccc2C1=O [Menadione]
inhibition at 2500 µM: 97.9%

C=C1c2cccc(O)c2C(=O)C2=C(O)[C@]3(O)C(=O)C(C(N)=O)=C(O)[C@@H](N(C)C)[C@@H]3[C@@H](O)[C@H]12 [Methacycline Hydrochloride]
inhibition at 2500 µM: 99.2%

CN(C)[C@@H]1C(=O)C(C(N)=O)=C(O)[C@@]2(O)C(=O)C3=C(O)c4c(O)cccc4[C@@](C)(O)[C@H]3[C@H](O)[C@@H]12 [Oxytetracycline]
inhibition at 2500 µM: 99.6%

O=c1c(O)cccc2cc(O)c(O)c(O)c12 [Purpurogallin]
inhibition at 2500 µM: 36.1%

Cc1cc2nc3c(=O)[nH]c(=O)nc-3n(C[C@H](O)[C@H](O)[C@H](O)CO)c2cc1C [Riboflavin]
inhibition at 500 µM: 96.5%

O=[N+]([O-])c1cc([As](=O)(O)O)ccc1O [Roxarsone]
% Inhibition (2500 µM, 5 mM glycocholic acid, about 10 mM DTT, 0.1 M sodium phosphate pH 6.0, 37 °C, 30 min preincubation): 48.6%
